Assay results as given in publication doi:10.1101/2020.09.06.284752v1 (biorxiv, 2020).

Legend:
[1] = target: T1, recombinant human PFKM (Homo sapiens, UniProt P08237); test: PFKM enzymatic activity inhibition; format: biochemical
T1 sequence (P08237 2-780): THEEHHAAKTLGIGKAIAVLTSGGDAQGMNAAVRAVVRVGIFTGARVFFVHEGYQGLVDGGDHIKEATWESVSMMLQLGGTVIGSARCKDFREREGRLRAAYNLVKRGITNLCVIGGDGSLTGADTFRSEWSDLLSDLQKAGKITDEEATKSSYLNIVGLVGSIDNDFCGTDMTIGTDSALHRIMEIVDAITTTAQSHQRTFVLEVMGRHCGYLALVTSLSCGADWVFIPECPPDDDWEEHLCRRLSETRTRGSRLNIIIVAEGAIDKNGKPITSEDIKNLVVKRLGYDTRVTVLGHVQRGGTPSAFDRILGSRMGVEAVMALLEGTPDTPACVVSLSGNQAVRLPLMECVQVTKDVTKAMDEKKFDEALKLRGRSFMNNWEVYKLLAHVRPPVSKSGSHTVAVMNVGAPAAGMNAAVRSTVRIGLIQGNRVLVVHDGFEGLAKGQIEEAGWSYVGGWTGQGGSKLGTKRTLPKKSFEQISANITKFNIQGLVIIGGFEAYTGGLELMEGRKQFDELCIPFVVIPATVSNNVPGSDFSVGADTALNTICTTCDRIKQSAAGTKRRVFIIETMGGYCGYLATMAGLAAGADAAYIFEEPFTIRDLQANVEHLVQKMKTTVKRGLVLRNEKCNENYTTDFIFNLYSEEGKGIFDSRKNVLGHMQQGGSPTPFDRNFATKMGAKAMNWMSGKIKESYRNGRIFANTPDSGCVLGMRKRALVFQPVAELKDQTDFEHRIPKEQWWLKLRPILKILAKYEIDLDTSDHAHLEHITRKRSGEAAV

[2] = target: T2, recombinant PFKL (Homo sapiens, UniProt P17858); test: PFKL enzymatic activity inhibition; format: biochemical
T2 sequence (P17858 2-780): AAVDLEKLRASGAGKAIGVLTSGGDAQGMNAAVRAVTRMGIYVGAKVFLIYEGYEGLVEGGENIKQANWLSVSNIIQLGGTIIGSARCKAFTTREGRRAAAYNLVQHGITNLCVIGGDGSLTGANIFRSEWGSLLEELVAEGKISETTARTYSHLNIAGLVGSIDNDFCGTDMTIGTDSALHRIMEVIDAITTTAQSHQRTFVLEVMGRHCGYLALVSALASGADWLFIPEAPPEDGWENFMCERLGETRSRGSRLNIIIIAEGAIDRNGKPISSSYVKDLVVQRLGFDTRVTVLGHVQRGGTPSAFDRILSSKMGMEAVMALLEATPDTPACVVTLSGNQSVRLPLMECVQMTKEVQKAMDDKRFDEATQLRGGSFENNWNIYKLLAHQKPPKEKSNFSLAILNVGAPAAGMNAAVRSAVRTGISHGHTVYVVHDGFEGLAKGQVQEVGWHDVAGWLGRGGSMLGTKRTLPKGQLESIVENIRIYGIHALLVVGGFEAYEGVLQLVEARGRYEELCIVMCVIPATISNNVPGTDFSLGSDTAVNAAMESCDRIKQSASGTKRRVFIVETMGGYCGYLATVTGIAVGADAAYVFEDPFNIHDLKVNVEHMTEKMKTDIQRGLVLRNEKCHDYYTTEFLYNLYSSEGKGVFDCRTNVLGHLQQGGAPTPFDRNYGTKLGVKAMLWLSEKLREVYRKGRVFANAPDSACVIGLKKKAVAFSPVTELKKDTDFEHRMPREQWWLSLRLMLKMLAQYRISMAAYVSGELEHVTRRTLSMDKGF

| SMILES | IC50 [1] | IC50 [2] |
| --- | --- | --- |
| C#CCNC(=O)[C@]1(C)CC[C@]2(C)CC[C@]3(C)C4=CC=C5C(=CC(=O)C(O)=C5C)[C@]4(C)CC[C@@]3(C)[C@@H]2C1 [1-85] | 507 nM | – |
| O=C(c1cccs1)c1no[n+]([O-])c1C(=O)c1cccs1 [3-79] | 292 ± 20.8 nM | – |
| CC1=C(O)C(=O)C=C2C1=CC=C1[C@@]2(C)CC[C@@]2(C)[C@@H]3C[C@](C)(C(=O)O)CC[C@]3(C)CC[C@]12C [celastrol] | 349 nM | 916 ± 35.7 nM |
